The text below walks through data of US5571807A, “1,5 benzothiazepinone dervatives their preparation and pharmaceutical use” (Istituto Luso Farmaco d'Italia S.p.A., priority 1990, dated 1996).

For data set [1] the following is noted: humans; cited from earlier work.
The nature of data set [2]: Pharmacokinetic studies in the conscious incannulated rat. The conditions noted are these: in vivo, po, 50 mg/kg/os, read-out: pharmacokinetics in the rat t 1/2.
Data set [3] deals with vasopressine-induced angina in the rat. The data set is described as follows: Vasopressine-induced angina in the rat. Format: in vivo. Particulars: for ED50: iv, read-out: angina vasopressine test rat (iv) ED50.
The target in a further data set is rabbit isolated atrium (Oryctolagus cuniculus, UniProt P15381). Kind of data set: cell-based. Particulars: inhibition of tonic contraction; read-out: rabbit isolated atrium (pA2) (converted).
Data set [4] addresses 3H-diltiazem binding sites in the cardiac tissue (Homo sapiens, UniProt Q13936). Kind of data set: biochemical. The conditions noted are these: displacement of 3H-diltiazem, read-out: receptorial binding (pIC50) (converted). Background: Loss of bound radioactivity is the signal in a displacement assay; it reports binding, not function.

Structures can show the parent of a compound that is named as a salt.

Sequence of 3H-diltiazem binding sites in the cardiac tissue (Q13936 whole entry): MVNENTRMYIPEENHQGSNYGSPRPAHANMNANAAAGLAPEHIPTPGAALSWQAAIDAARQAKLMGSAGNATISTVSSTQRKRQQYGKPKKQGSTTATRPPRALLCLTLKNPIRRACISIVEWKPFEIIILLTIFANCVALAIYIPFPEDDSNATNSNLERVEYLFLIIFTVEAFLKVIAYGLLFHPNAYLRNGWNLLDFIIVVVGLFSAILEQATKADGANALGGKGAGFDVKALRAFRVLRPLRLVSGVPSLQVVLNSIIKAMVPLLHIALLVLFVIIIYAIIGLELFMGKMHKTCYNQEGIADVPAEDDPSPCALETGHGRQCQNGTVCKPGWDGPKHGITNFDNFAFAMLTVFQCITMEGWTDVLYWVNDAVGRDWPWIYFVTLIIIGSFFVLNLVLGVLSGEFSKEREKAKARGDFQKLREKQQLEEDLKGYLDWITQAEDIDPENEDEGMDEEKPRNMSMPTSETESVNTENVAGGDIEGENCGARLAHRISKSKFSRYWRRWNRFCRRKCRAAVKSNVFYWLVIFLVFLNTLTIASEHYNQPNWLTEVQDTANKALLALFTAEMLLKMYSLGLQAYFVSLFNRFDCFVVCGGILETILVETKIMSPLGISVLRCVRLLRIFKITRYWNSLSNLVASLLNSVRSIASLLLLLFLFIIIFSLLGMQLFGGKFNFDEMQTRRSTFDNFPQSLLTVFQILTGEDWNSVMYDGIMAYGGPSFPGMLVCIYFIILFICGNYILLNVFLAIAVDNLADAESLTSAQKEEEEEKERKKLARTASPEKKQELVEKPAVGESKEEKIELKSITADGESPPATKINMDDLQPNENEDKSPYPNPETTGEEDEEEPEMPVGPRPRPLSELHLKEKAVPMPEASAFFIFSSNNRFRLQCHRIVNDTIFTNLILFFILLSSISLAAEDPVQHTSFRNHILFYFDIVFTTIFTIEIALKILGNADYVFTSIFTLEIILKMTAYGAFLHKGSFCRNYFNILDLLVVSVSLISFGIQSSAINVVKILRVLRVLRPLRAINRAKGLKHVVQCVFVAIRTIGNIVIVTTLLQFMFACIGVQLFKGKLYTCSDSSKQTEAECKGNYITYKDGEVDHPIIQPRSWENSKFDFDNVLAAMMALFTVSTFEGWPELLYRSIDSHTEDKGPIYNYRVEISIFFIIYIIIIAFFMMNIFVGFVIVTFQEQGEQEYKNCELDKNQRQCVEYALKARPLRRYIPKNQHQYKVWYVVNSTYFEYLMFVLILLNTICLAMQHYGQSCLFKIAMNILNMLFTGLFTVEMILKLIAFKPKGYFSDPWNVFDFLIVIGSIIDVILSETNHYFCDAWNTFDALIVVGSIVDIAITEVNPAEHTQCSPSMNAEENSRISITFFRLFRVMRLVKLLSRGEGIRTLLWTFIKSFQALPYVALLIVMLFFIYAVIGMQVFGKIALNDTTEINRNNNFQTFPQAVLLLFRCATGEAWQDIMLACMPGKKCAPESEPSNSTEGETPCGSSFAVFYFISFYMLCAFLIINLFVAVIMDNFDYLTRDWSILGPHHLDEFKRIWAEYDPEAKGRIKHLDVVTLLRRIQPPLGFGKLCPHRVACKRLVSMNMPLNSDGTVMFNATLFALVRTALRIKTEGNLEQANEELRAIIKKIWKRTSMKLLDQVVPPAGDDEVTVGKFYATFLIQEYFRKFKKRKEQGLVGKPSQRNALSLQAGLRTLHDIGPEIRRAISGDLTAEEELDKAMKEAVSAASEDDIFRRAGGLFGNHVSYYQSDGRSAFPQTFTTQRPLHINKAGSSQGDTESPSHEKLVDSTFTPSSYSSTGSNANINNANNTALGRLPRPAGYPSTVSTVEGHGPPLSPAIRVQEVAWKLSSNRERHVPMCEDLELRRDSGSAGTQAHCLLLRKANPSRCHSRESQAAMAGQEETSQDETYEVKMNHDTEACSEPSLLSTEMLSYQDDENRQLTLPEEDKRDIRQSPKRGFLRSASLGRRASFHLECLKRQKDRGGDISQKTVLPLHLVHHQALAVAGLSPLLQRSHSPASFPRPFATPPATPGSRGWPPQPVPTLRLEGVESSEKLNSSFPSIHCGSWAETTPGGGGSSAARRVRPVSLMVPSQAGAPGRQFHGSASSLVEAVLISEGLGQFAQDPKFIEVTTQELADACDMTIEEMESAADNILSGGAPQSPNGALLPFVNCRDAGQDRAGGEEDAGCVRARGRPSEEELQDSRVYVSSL
Sequence of 3H-diltiazem binding sites in the cardiac tissue (Q08289 whole entry partner): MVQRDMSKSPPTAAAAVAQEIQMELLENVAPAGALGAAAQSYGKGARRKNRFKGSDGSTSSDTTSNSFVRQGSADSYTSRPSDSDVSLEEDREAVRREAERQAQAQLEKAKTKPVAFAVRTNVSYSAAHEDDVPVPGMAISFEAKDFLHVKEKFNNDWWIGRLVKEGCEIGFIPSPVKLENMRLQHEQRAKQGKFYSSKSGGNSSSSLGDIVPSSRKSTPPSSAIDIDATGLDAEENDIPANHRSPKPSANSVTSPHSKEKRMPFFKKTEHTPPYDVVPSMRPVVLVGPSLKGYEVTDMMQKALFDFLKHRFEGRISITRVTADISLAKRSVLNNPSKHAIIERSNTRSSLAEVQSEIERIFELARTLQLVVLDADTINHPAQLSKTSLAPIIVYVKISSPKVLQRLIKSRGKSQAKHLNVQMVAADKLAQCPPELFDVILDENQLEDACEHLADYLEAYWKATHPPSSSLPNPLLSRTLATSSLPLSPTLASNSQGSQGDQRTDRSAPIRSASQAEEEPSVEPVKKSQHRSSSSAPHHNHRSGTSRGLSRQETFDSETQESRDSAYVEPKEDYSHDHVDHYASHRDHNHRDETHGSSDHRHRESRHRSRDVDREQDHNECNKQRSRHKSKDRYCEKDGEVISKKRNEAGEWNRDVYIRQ
Sequence of 3H-diltiazem binding sites in the cardiac tissue (P54289 25-957 partner limits assumed): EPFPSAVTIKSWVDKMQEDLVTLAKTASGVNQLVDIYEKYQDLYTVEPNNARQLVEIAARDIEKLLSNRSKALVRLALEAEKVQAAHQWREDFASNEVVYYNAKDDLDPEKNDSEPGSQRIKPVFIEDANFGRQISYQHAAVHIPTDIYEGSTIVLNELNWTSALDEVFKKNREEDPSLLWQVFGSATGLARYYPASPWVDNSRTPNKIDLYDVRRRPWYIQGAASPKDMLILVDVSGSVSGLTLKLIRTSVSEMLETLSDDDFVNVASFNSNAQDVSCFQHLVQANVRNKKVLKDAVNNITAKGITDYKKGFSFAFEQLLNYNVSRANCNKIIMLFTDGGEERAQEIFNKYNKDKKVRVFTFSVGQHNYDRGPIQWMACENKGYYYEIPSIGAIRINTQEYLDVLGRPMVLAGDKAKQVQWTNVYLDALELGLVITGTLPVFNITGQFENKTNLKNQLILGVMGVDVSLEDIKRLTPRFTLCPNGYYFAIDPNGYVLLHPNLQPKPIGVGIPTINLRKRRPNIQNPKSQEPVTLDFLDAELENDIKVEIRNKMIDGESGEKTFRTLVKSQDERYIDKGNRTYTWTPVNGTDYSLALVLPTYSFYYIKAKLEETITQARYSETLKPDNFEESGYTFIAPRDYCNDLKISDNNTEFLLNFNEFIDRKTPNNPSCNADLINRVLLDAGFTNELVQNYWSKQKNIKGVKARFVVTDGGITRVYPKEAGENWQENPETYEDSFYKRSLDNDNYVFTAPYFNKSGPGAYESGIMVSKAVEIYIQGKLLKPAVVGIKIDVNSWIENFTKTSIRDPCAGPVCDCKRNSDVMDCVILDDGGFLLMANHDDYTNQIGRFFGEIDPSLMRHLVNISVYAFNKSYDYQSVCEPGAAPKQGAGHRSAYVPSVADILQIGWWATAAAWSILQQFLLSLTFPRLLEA
Sequence of 3H-diltiazem binding sites in the cardiac tissue (P54289 958-1103 partner limits assumed): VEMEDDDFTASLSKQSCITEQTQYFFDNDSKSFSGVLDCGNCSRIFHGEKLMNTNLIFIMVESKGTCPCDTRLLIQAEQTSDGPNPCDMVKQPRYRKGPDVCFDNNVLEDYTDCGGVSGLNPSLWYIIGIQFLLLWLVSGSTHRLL

By ED50 is commonly meant the dose that gives a 50% effect, or the effect in half of the subjects. Regarding `COc1ccc([C@@H]2Sc3ccccc3N(CCN(C)C)C(=O)[C@@H]2OC(C)=O)cc1` [Diltiazem, reference compound], in data set [1], the elimination half-life result is listed as “short elimination half-life”. Besides, the half-life in data set [2] stood at 0.95 h. Further, the ED50 in data set [3] is 0.45 mg/kg.
With `COc1ccc([C@@H]2Sc3ccccc3N(CCN(C)C(C)C)C(=O)[C@@H]2OC(C)=O)cc1` [Compound A, Cis(+)-3-acetyloxy-2,3-dihydro-5-(2-N-isopropyl-N-methylaminoethyl)-2-(4-methoxyphenyl)-1,5-benzothiazepin-4(5H)-one hydrobromide], at rabbit isolated atrium, the Kb is 50.1 nM. Moreover, the half-life in data set [2] amounted to 1.53 h. Further, in data set [3], the “angina vasopressine test rat (iv) duration” value worked out at 78 min and the ED50 was found to be 0.49 mg/kg. Besides, in data set [4], the IC50 is 64.6 nM.
The like results for `COc1ccc([C@@H]2Sc3ccccc3N(CC(C)CN(C)C)C(=O)[C@@H]2OC(C)=O)cc1.O=C(O)C(=O)O` (single isomer, unassigned; diastereoisomer b) [Compound B, Cis(+)-3-acetyloxy-2,3-dihydro-5-(2-methyl-3-dimethylaminopropyl)-2-(4-methoxyphenyl)-1,5-benzothiazepin-4(5H)-one oxalate (diastereoisomer B)] were, in that order, 63.1 nM, 1.18 h, 72 min, 0.54 mg/kg and 30.2 nM.
